The values below come from US20230303693A1, “BISPECIFIC ANTIBODY AGAINST CD3 AND CD20 IN COMBINATION THERAPY FOR TREATING DIFFUSE LARGE B-CELL LYMPHOMA” (GENMAB A/S, priority 2022, published 2023).

In data set [1] the test system is T cells.
In data set [2] the test system is T cells. In words: T cell viability after 16 hours pre-incubation with CHP components. The conditions noted are these: pretreatment of T cells, 16 hours (data not shown).
The test system of data set [3] is CD20-expressing Raji-luc tumor cells. The conditions noted are these: NOD-SCID mice injected with Raji-luc tumor cells and PBMCs; even in presence of excess IgG1-RTX-FEAR; cited from earlier work.
In data set [4] the test system is primary DLBCL and follicular lymphoma patient biopsies. The conditions noted are these: cited from earlier work.
For data set [5], the system named is relapsed or refractory (R/R) B-NHL, highly refractory large B-cell lymphoma. The conditions noted are these: monotherapy, n=157; cited from earlier work.

Like-named read-outs stand apart in the source and are kept apart here.

On to `O=P1(N(CCCl)CCCl)NCCCO1` (stereo not drawn) [cyclophosphamide, 2H-1,3,2-Oxazaphosphorin-2-amine, N,N-bis(2-chloroethyl)tetrahydro-, 2-oxide], for which the T cell viability result in data set [1] is “did not impact T cell viability”.

Take `COc1cccc2c1C(=O)c1c(O)c3c(c(O)c1C2=O)C[C@@](O)(C(=O)CO)C[C@@H]3O[C@H]1C[C@H](N)[C@H](O)[C@H](C)O1` [doxorubicin]: in data set [2], the T cell viability entry is recorded as “led to a reduction in T cell viability”.

Take epcoritamab: in data set [3], the tumor growth entry is “effectively reduce tumor growth”. For the same molecule, the T-cell-mediated cytotoxicity entry in data set [4] (biopsies taken a certain amount of time after administration of an anti-CD20 antibody) was “induced T-cell-mediated cytotoxicity”. In addition, the tumor cell kill result in data set [4] (biopsy taken 2 weeks after administering anti-CD20 antibody) is “up to 40%”. Besides, in data set [5], the “complete response (CR) rate” value was 39%, the “median duration of response (DOR)” value is recorded as 12 months, the “overall response rate (ORR)” value is on record as 63% and the safety profile entry is listed as “manageable safety profile”.
